Consider seven compounds from paper PMC6308159 (Frontiers in Public Health, 2018).

Data set [1] deals with primary human endothelial colony-forming cells (ECFCs), cord blood clones.
The test system is the same in data set [2]. The experiment in a line: cells. The note with it: read-out: IC50, range between individual ECFC clones.
A further data set is described as follows: in vitro. The following applies: human.
For data set [3] the following is noted: cited from earlier work.
Data set [4] relates to polyclonal ECFC line CB002. It is filed as cell-based, human. The following applies: 0.390625 μM; 48 h.
Where [5] appears, read: read-out: IC50, range between individual ECFC clones.

Several values for one entry are separate records, joined by “and”; a condition that tells them apart may be missing. Equal entries are not always repeated. Where two headings read alike, the source gives them in different places.

Usually IC50 stands for the concentration needed to halve the response being measured. For the compound `O.[Cl][Cd][Cl]` [CdCl2, Cadmium Chloride Hydrate], in data set [1], the “IC10, range between individual ECFC clones” value was in the range of 4.2 to 9.3 µM; the “average IC10 (mean and standard deviation)” value is 6.7 ± 1.85 µM; the cells killed was ~100%; the cytotoxicity entry was “not cytotoxic”. In data set [1] (setting [5]), the IC50 lay within 12.3 to 18 µM.

As a reminder, the viability is a per cent measure of how many cells are alive, often set against a control. Regarding `CC1=CC(=O)c2ccccc2C1=O` [Menadione, 2-methyl-1,4-naphthoquinone, reference compound], the IC50 in data set [2] lay within 8 to 26.3 µM. In addition, in data set [1], the “IC10, range between individual ECFC clones” value was 5.6 to 19.0 µM; the “average IC10 (mean and standard deviation)” value was determined as 11.5 ± 5.03 µM; the cells killed was 100%; the live cells is < 50%. The viability at 10 µM in the data set “in vitro” was 100%. For the same compound, the blood level in data set [3] (observed in a clinical setting) was 500 to 2000 nM. Besides, the “level found in the blood” value in data set [3] (volunteers after ingestion of 10 mg menadione sodium bisulfite tablets) is given as 20 nM.

As for `O.O.O.O.O.O.O.O=[As]([O-])([O-])O.[Na+].[Na+]` [Na2HAsO4, Sodium arsenate dibasic heptahydrate], in data set [1], the cells killed is on record as 0% and the “effect on ECFC viability / toxicity” value is listed as “no effect”.

Turning to `O=[As][O-].[Na+]` [NaAsO2, Sodium (meta)arsenite], in data set [4], the “raw CFDA fluorescence per well” value is 4689 and 4248 and 2550 and 2844 and 2369 and 3435. For the same compound, in data set [1], the “IC10, range between individual ECFC clones” value was 1.1 to 5.0 µM; the “average IC10 (mean and standard deviation)” value was 2.4 ± 1.16 µM; the cells killed is recorded as 100%. The IC50 in data set [1] (read-out: IC50 ± SD) stood at 7.5 ± 4.7 µM.

As to `CC1=C(C/C=C(\C)CCC[C@H](C)CCC[C@H](C)CCCC(C)C)C(=O)c2ccccc2C1=O` [Phytonadione, phytonadione, reference compound], the “effect on ECFC viability / toxicity” value in data set [1] is recorded as “not toxic”.

Take `CCC[CH2][Sn]([Cl])([CH2]CCC)[CH2]CCC` [TBT, Tributyltin Chloride]: in data set [1], the “IC10, range between individual ECFC clones” value was 0.2 to 0.5 µM; the “average IC10 (mean and standard deviation)” value worked out at 0.3 ± 0.11 µM. The IC50 in data set [1] (setting [5]) was 1.2 to 2.3 µM.

For `[Cl-].[Cl-].[Zn+2]` [ZnCl2, Zinc Chloride], in data set [1], the cytotoxicity result was “cytotoxic” and the effect on viability entry is listed as “did not affect viability”.
